Results: patent US12662403B2, “Photoswitchable guanidinium compounds for removal of oxyanions from liquid solutions” (UT-Battelle, LLC, priority 2021, dated 2026)

Tests used:
[1] = Photoirradiation, thermal relaxation and cycling monitored by 1H NMR in DMSO-d6; format: physicochemical; conditions: for time to reach thermal equilibrium: 10 mM, photoirradiated
Procedure: In a typical photoirradiation NMR experiment, 3 mL of a freshly made deuterated DMSO solution was placed in a quartz cuvette (1 cm×1 cm×4.5 cm), stirred, and irradiated with UV-visible light using an unfiltered super high-pressure mercury lamp with emissions in the long-wave UV region and in the visible region at the yellow, green, blue, and violet wavelengths (254-800 nm). From the irradiated solution, 500 μL aliquots were removed with a micropipette and transferred to NMR tubes. For studies including excess triflate, a stock solution (200 mM) of tetramethylammonium triflate in DMSO-d6 was added before irradiation to obtain the desired concentration. Experiments were carried out in the same fashion as above. All measurements were obtained on the irradiated solutions within 1 hour of irradiation. ^1H spectra were recorded on a Bruker AvanceIII-400 MHz NMR spectrometer equipped with a 5 mm PABBO probe. The residual solvent signal ((CD3)2SO δH=2.50 ppm) was considered as an internal reference to calibrate spectra and the temperature was held at 24° C. The chemical shifts used to monitor photoisomerization were the set of doublets at 8.67 and 8.80 ppm and triplets at 7.54 and 7.68 ppm for the E,E and Z,Z isomers, respectively. […] The sample underwent hydrolysis back to the aldehyde only under forcing conditions of heating the sample at 50° C. for 2 weeks in water, where the aldehyde proton at 9.86 ppm started to resolve.
Cycling studies were performed by irradiating a freshly prepared, 9.94 mM 2PyDIG·HOTf DMSO-d6 solution in an NMR tube at 24° C. After 6 hour, a ^1H NMR spectrum was collected to determine the photoisomerization value, and the sealed NMR tube was placed in a 50° C. oven. The sample was heated statically for 24 hour, at which point the solution was left to cool at room temperature for approximately 30 min, and a ^1H NMR spectrum was collected to determine the thermal relaxation value. This cycling process was repeated three more times.

[2] = Sulfate binding constants, average of the UV-vis and NMR titrations, and E,E − Z,Z comparison
Procedure: For absorption titration experiments, a freshly prepared stock solution of 1.5 mM E,E-2PyDIG·HOTf in DMSO-d6 was added to a 1 mm quartz cuvette, and a tetramethylammonium sulfate solution (3.6 mM in DMSO-d6) was added, and the solution was mixed. Absorption spectra were collected after each addition using a UV-Visible spectrophotometer at ca. 24° C. For the Z,Z photoisomer, a freshly prepared 1.5 mM 2PyDIG·HOTf sample was irradiated for 1 hour before titration experiments were prepared and carried out in the same manner as for the E,E isomer.
The binding constants from the three UV-Vis titrations were calculated using commercial software based on the changes in the 2PyDIG^+ absorption maximum value at 315 nm and 320 nm for the E,E and Z,Z photoisomers, respectively. Fitting was performed by assigning the 1:0 and 1:2 PyDIG:sulfate adducts as spectra from before addition of sulfate and after 3 molar equivalents of sulfate, respectively.
For ^1H NMR titrations, a freshly prepared stock solution of 1.5 mM 2PyDIG·HOTf in DMSO-d6 was added to twelve NMR tubes, and a tetramethylammonium sulfate solution (10 mM in DMSO-d6) was added in varying stoichiometric amounts. Clean DMSO-d6 was then added to achieve a final volume of 500 μL. Titrations were performed with both a micropipette and a micrometer syringe. For the Z,Z photoisomer, a freshly prepared 1.5 mM 2PyDIG·HOTf sample was irradiated for 1 hour before the six titration experiments were prepared and carried out in the same manner as for the E,E isomer. To ensure that the PyDIG concentration was not changing as a result of precipitation, dimethylsulfone was added as an internal standard to the 1:2 PyDIG:SO4 solution. It was determined that the concentration of PyDIG remained constant throughout the experiment.
The binding constants from the four ^1H NMR titrations were calculated using commercial software based on the changes in the guanidinium —N—H chemical shifts of the 2PyDIG protons. During fitting, only the monoprotonated 2PyDIG cation was considered, as the Bjerrum pair of 2PyDIG cation and triflate in DMSO was estimated to have a Kassociation value of 156 M−^1. Fitting was performed by locking the 1:0 and 1:2 PyDIG:sulfate adducts at known chemical shift values to reduce the number of adjustable parameters to refine. The corresponding speciation and residual plots for each trial made. Attempts to increase the experimental concentration of 2PyDIG·HOTf higher than 1 mM produced solids, which prevented NMR titrations at higher concentrations.

[3] = Photoswitching in the absence or presence of sulfate (1H NMR, DMSO-d6); format: physicochemical
Procedure: Photoswitching in the presence of sulfate was performed in one of two methods. In the first method, 0.5 mol ratio (sulfate to 2PyDIG^+) tetramethylammonium sulfate was added to a freshly prepared 10 mM E,E-2PyDIG·HOTf in DMSO-d6 solution in a quartz cuvette. After the addition of sulfate, the solution was irradiated with a UV (Hg lamp) light for 2 hours while stirring. The solution was then heated statically for 36 hours, at which point the solution was left to cool at room temperature for approximately 30 minutes, and a ^1H NMR spectrum was collected. In the second method, a freshly prepared 10 mM E,E-2PyDIG·HOTf in DMSO-d6 solution was irradiated with UV (Hg lamp) light for 2 hours while stirring. Following this, tetramethylammonium sulfate was added in either 0.5 or 1.0 mol ratio (sulfate to 2PyDIG^+). The solution was then heated statically for 36 hours, at which point the solution was left to cool at room temperature for approximately 30 minutes, and a ^1H NMR spectrum was collected. ^1H NMR spectra were collected on 500 μL aliquots of the freshly prepared samples, samples after photoirradiation, and samples after thermal treatment at 50° C. for 36 hours.

[4] = Control, no SO4 added, mol ratio 0
[5] = SO4 added after irradiation, mol ratio 0.5
[6] = SO4 added after irradiation, mol ratio 1.0

N=C(N/N=C/c1ccccn1)N/N=C/c1ccccn1.O=S(=O)(O)C(F)(F)F [E,E-2PyDIG, bis(2-((E)-pyridin-2-ylmethylene)hydrazineyl)methaniminium trifluoromethanesulfonate]
time required to reach thermal equilibrium ([1]; 1 mM solution, even at elevated temperatures): greater than 20 days
photoconversion to the Z,Z isomer ([1]; 1.5 mM (low concentration), UV irradiation, DMSO-d6, 24° C.): 95.6±0.4%
time to reach photoconversion to the Z,Z isomer ([1]; 1.5 mM, UV irradiation): less than 15 min
Z,Z isomer initially present ([1]; 1.5 mM, before UV irradiation, DMSO-d6): 5.5±0.5%
percent Z,Z isomer in cycling, after irradiation ([1]; 10 mM in DMSO, 6-hour irradiation): 69%
percent Z,Z isomer in cycling, after dark equilibration ([1]; 10 mM in DMSO, 24-hour dark equilibration): 25%
Z,Z isomer at PSS ([1]; 10 mM solution, UV irradiation): 67.7±4.4%
time to reach PSS ([1]; 10 mM solution, UV irradiation): more than 2 hours
time to reach thermal equilibrium ([1]; 24° C.): 4 days
time to reach thermal equilibrium ([1]; 50° C.): less than 24 h
experimental free energy difference between E,E and Z,Z forms (Eq. 1) ([1]; in the presence of triflate): 0.5 kcal/mol
equilibrium constant of thermal relaxation back to E,E from Z,Z (Eq. 1) ([1]; independent of temperature): 2.38(8)
E,E isomer at common thermal equilibrium ([1]; photoirradiated and nonirradiated solutions, thermal relaxation): 70.5±0.9%
time to thermally equilibrate, unirradiated E,E isomer ([1]; unirradiated, 24° C.): 14 days
log b11, E,E − Z,Z Difference ([2]; Eq. 2, difference of log binding constants of the isomers): 5.40±0.45
log b21, E,E − Z,Z Difference ([2]; Eq. 3, difference of log binding constants of the isomers): 8.31 ± 0.56
log b21, E,E Avg Value ([2]; Eq. 3, precision-weighted average of UV-vis and NMR titrations, DMSO-d6, 24° C.): 11.39±0.55
log b12, E,E − Z,Z Difference ([2]; Eq. 4, difference of log binding constants of the isomers): 7.91 ± 0.76
log b12 of the 1:2 adduct ([2]; as printed in text with unit, average value of Table 2): 11.91±0.74 M^−1
log K12, addition of the second sulfate to the 1:1 adduct ([2]; stepwise constant, DMSO-d6): 4.7±1.5
Relative Amount of E,E-2PyDIG+, before irradiation [3, 4]: 97.4 ± 0.6%
Relative Amount of E,E-2PyDIG+, thermal equilibrium [3, 4]: 70.5 ± 0.9%
Relative Amount of E,E-2PyDIG+, after irradiation ([3]; Control, no SO4 added, mol ratio 0, PSS): 32.3 ± 4.4%
Relative Amount of E,E-2PyDIG+, after irradiation [3, 5]: 33.2 ± 5.3%
Relative Amount of E,E-2PyDIG+, before irradiation [3, 5]: 95.1 ± 1.4%
Relative Amount of E,E-2PyDIG+, thermal equilibrium [3, 5]: 93.1 ± 3.3%
Relative Amount of E,E-2PyDIG+, after irradiation [3, 6]: 31.0 ± 4.7%
Relative Amount of E,E-2PyDIG+, before irradiation [3, 6]: 93.4 ± 2.9%
Relative Amount of E,E-2PyDIG+, thermal equilibrium [3, 6]: 91.6 ± 1.9%
Relative Amount of E,E-2PyDIG+, before irradiation ([3]; SO4 added before irradiation, mol ratio 0.5): 91.1 ± 1.2%
Relative Amount of E,E-2PyDIG+, thermal equilibrium ([3]; SO4 added before irradiation, mol ratio 0.5, 50° C., 36 hours): 91.2 ± 1.4 ^ %
Relative Amount of E,E-2PyDIG+, thermal equilibrium ([3]; SO4 added before irradiation, mol ratio 0.5, 50° C., 36 hours, listed as 2PyDIG·HOTf): 91.2±1.4%
Relative Amount of E,E-2PyDIG+, after irradiation ([3]; SO4 added before irradiation, mol ratio 0.5, 2 hours UV): 32.5 ± 3.8 ^ %
Relative Amount of E,E-2PyDIG+, after irradiation ([3]; SO4 added before irradiation, mol ratio 0.5, 2 hours UV, listed as 2PyDIG·HOTf): 32.5±3.8%
Relative Amount of E,E-2PyDIG+, before irradiation ([3]; SO4 added before irradiation, mol ratio 0.5, listed as 2PyDIG·HOTf): 92.8±1.4%
E,E isomer before sulfate addition, before irradiation ([3]; ca. 10 mM 2PyDIG·HOTf in DMSO-d6, before addition of 0.5 mol ratio sulfate): 93.1±1.2%
